Measurements: US8236811B2, “Therapeutic use for treating of leukemia” (Sanofi, priority 2006, dated 2012)

Assays:
Assay type in all cases: in vivo, Scid CB-17 mice
KG1a tumors (AML) = assay: Antitumor activity in mice bearing KG1a tumors (AML)
Description: (§1) Scid CB-17 mice (supplied by Charles River, Lyon, France) are used. At the time of the randomization, the animals have an average weight of 20-22 g and are aged from 6 to 9 weeks.
(§2) The day before the first administration of a compound, the animals bearing tumors are classified into several groups. Only animals bearing two tumors which are palpable or of determined weight are selected and distributed at random into the treated groups and control groups. Each group is made up of 5 to 10 mice. At the start of the study, each cage is labeled with a card indicating the day of implantation of the tumour, the type of tumour, the compound tested and the mode of administration.
(§3) The implantation of the tumors is effected as follows: after removal of the tumour from the donor mouse, the tumour is cut up into fragments 2 to 3 mm in diameter, placed in a saline phosphate buffer, and implanted bilaterally with an adapted trocar.
(§4) The volume of the tumors and its conversion into weight is estimated according to the formula: weight: (in mg)=(a×b^2)/2, where a and b are respectively the length and the width of the tumour (mm). The tumors are measured twice a week with calipers. In the following tables, P indicates the weight of the tumors at the start of treatment.
(§5) T is the median time in days for reaching a defined value (e.g. 1000 mg) in the treated group and C is the median time in days for reaching this same value in the control group. A value of log10 of the cells killed>0.7 is indicative of antitumor activity of the molecule. […] The median weight of the tumors of each treated group is then determined.
IV/IP is understood to mean administration by the intravenous route followed by an intraperitoneal route; here the transition is effected between day 15 and day 16. IV/oral is understood to mean administration by the intravenous route followed by an oral route; here the transition is effected between day 30 and day 31. […] On day 31, the compound is administered by the oral route until day 44.

KG1 tumours (AML) = assay: Antitumor activity in mice bearing KG1 tumours (AML)
Description: as §1, §2, §3, §4
Two parameters for estimation of antitumor activity are used: log10 of the cells killed (Log cell kill) and T/C. • Calculation of log10 of the cells killed=(T−C)/3.32×Td, where (T−C) is the delay in tumour growth and Td the volume (and weight) doubling time of the tumour (expressed in days). T is the median time in days for reaching a defined value (e.g. 1000 mg) in the treated group and C is the median time in days for reaching this same value in the control group. A value of log10 of the cells killed>0.7 is indicative of antitumor activity of the molecule. A value of log10 of the cells killed >2.8 is indicative of a very high antitumor activity of the molecule (J Liang et al, Invest New Drugs 2005; 23(3):213-24). • Calculation of T/C: the treated groups and the control groups are evaluated when the tumors of the control group reach approximately 1000 mg (median value of the group). The median weight of the tumors of each treated group is then determined. The T/C value ((weight of the tumors of the treated groups/weight of the tumors of the control groups)×100) in percent is an indication of the antitumor efficacy: a T/C value less than or equal to 42% is indicative of anti-tumour activity according to the American National Cancer Institute (NCI). A T/C value less than 10% is representative of very high anti-tumour activity. • The number of mice no longer displaying tumors a long time after the last administration (TFS=tumour-free survival), and considered as cured, can also constitute a parameter of activity of the molecule. • Evaluation of the toxicity of the compound tested: a weight loss greater than or equal to 20% or the appearance of any lethality in connection with the compound is considered as an excessively toxic treatment. As examples, the results obtained with the compound N-[2-(2,1,3-benzothiadiazol-5-ylamino)-6-(2,6-dichlorophenyl)pyrido[2,3-d]pyrimidin-7-yl]-N′-(1,1-dimethyl-ethyl)-urea are given in the following Tables 1 to 7.
(§6) IV is understood to mean administration by the intravenous route.
The cell line KG-1 (AML) is described by Koeffler et al., Science 200: 1153-1154 (1978), and supplied by DSMZ ACC No. 14.

Kasumi1 tumours (AML) = assay: Antitumor activity in mice bearing Kasumi1 tumours (AML); conditions: days 25-31, 33, 34, P 178 mg
Description: as §1, §2, §3, §4, §5, §6

EOL-1 tumours (AML) = assay: Antitumor activity in mice bearing EOL-1 tumours (AML); conditions: days 8-10, 12-17, 19, total dose 300 mg/kg, P 133-146 mg
Description: as §1
(§7) The day before the first administration of a compound, the animals bearing tumors are classified into several groups. Only animals bearing two tumors which are palpable or of determined weight are selected and distributed at random into the treated groups and control groups. Each group is made up of 5 to 10 mice. At the start of the study, each cage is labeled with a card indicating the day of implantation of the tumour, the type of tumour, the compound tested and the mode of administration. […]
(§8) The volume of the tumors and its conversion into weight is estimated according to the formula: weight: (in mg)=(a×b^2)/2, where a and b are respectively the length and the width of the tumour (mm). The tumors are measured twice a week with calipers. […]
T is the median time in days for reaching a defined value (e.g. 1000 mg) in the treated group and C is the median time in days for reaching this same value in the control group. […] The median weight of the tumors of each treated group is then determined.

CTV1 tumours (AML) = assay: Antitumor activity in mice bearing CTV1 tumours (AML); conditions: 25 mg/kg/injection IV/IP, days 17-23, 25-26/28-32, total dose 350 mg/kg, P 100 mg
Description: as §1, §7, §8
Two parameters for estimation of antitumor activity are used: log10 of the cells killed (Log cell kill) and T/C. • Calculation of log10 of the cells killed=(T−C)/3.32×Td, where (T−C) is the delay in tumour growth and Td the volume (and weight) doubling time of the tumour (expressed in days). […] The median weight of the tumors of each treated group is then determined. […]

K562 tumours (CML) = assay: Antitumor activity in mice bearing K562 tumours (CML); conditions: 25 mg/kg/injection IV/IP, days 4-11/12-25, total dose 550 mg/kg
Description: as §1, §2, §3, §4
(§9) Two parameters for estimation of antitumor activity are used: log10 of the cells killed (Log cell kill) and T/C. • Calculation of log10 of the cells killed=(T−C)/3.32×Td, where (T−C) is the delay in tumour growth and Td the volume (and weight) doubling time of the tumour (expressed in days). […] A value of log10 of the cells killed >2.8 is indicative of a very high antitumor activity of the molecule (J Liang et al, Invest New Drugs 2005; 23(3):213-24). • Calculation of T/C: the treated groups and the control groups are evaluated when the tumors of the control group reach approximately 1000 mg (median value of the group). The median weight of the tumors of each treated group is then determined. […]

CMLT1 tumours (CML) = assay: Antitumor activity in mice bearing CMLT1 tumours (CML); conditions: 20 mg/kg/injection IV/IP, days 3-7/10-14, 17-21, total dose 300 mg/kg
Description: as §1, §2, §3, §4, §9

[1] = 17 mg/kg/injection IV, days 19-38, total dose 255 mg/kg, P 127-130 mg

## CC(C)(C)NC(=O)Nc1nc2nc(Nc3ccc4nsnc4c3)ncc2cc1-c1c(Cl)cccc1Cl [N-[2-(2,1,3-benzothiadiazol-5-ylamino)-6-(2,6-dichlorophenyl)pyrido[2,3-d]pyrimidin-7-yl]-N′-(1,1-dimethylethyl)-urea]
KG1a tumors (AML); 17 mg/kg/injection IV/IP, days 5-13, 15/16, 18-20, 22, 24-26, 29, 31, total dose 340 mg/kg, P 91-98 mg, DMSO 5% Tween80 10% H2O 85%
  T/C at 22 days: 0%
KG1a tumors (AML); 17 mg/kg/injection IV/IP, days 5-31, total dose 340 mg/kg, P 91-98 mg, DMSO 5% Tween80 10% H2O 85%
  Log10 cells killed: >>6
KG1a tumors (AML); 25 mg/kg IV days 22-30 then 40 x 2 mg/kg oral days 31-44, total dose 225/1120 mg/kg, P 1000 mg, DMSO 5% Tween80 10% H2O 85%
  Log10 cells killed: >>6
KG1a tumors (AML); 40 x 2 mg/kg (2 administrations per treatment day) oral, days 15-44, total dose 2400 mg/kg, P 147 mg
  Log10 cells killed: 3.0
KG1a tumors (AML); 40 x 2 mg/kg (2 administrations per treatment day) oral, days 15-44, total dose 2400 mg/kg, P 147 mg, DMSO 5% Tween80 10% H2O 85%
  T/C at 22 days: 14.9%
KG1a tumors (AML); after IV days 22-30 (25 mg/kg) then oral route day 31 until day 44, P 1000 mg
  tumour weight at the end of second treatment period (tumors no longer measurable): < 63 mg
KG1a tumors (AML); on day 120, 17 mg/kg/injection IV/IP, days 5-31, total dose 340 mg/kg, P 91-98 mg
  TFS (tumour-free survival): 80% on
KG1a tumors (AML); tumors at very advanced stage (1000 mg), IV route days 22 to 30 at 25 mg/kg
  reduction in the tumour weight: 80%
KG1 tumours (AML); 17 mg/kg/injection IV, days 19-28, 30, 32, 34, 36, 38, total dose 255 mg/kg, P 127-130 mg, DMSO 5% Tween80 10% H2O 85%
  T/C at 28 days: 0%
KG1 tumours (AML); [1]
  Log10 cells killed: >6
  TFS (tumour-free survival): (100%)
KG1 tumours (AML); 40 x 2 mg/kg (2 administrations per treatment day) oral, days 18-24, 26, 28, 30, 32, 34, 36, 38, 40, total dose 1200 mg/kg, P 130-132 mg, Labrasol 21% Solutol 5% HCl 0.001N 74%
  T/C at 28 days: 0%
KG1 tumours (AML); 40 x 2 mg/kg oral, days 18-40, total dose 1200 mg/kg, P 130-132 mg
  Log10 cells killed: 4.3
Kasumi1 tumours (AML); 15 x 2 mg/kg (two administrations per treatment day) IV, total dose 255 mg/kg, PEG400 22% Solutol 5% G5 73%
  T/C at 28 days: 20%
Kasumi1 tumours (AML); 15 x 2 mg/kg IV, total dose 255 mg/kg
  Log10 cells killed: 3
Kasumi1 tumours (AML); 40 x 2 mg/kg (two administrations per treatment day) oral, total dose 680 mg/kg, Labrasol 21% Solutol 5% HCl 0.001N 74%
  T/C at 28 days: 17.5%
Kasumi1 tumours (AML); 40 x 2 mg/kg oral, total dose 680 mg/kg
  Log10 cells killed: 2.4
EOL-1 tumours (AML); 15 x 2 mg/kg (2 administrations per treatment day) IP, PEG400 22% Solutol 5% G5 73%
  T/C at 14 days: 5.7%
EOL-1 tumours (AML); 15 x 2 mg/kg IP
  Log10 cells killed: 3.1
CTV1 tumours (AML)
  Log10 cells killed: 1.7
CTV1 tumours (AML); PEG400 22% Solutol 5% G5 73%
  T/C at 25 days: 1.6%
K562 tumours (CML); P 63-80 mg
  Log10 cells killed: 4.2
K562 tumours (CML); P 63-80 mg, DMSO 5% Tween80 10% H2O 85%
  T/C at 28 days: 0%
K562 tumours (CML); on day 130
  TFS (tumour-free survival): (43%
CMLT1 tumours (CML); P palpable ~30 mg
  Log10 cells killed: 1.5
CMLT1 tumours (CML); P palpable ~30 mg, DMSO 5% Tween80 10% H2O 85%
  T/C at 22 days: 1%
CMLT1 tumours (CML); on day 42
  TFS (tumour-free survival): (50%
